Laboratory results reported in patent US5922887A, “Diaryldiamine derivatives and their use as delta opiod (ANT)-agonists” (SmithKline Beecham SpA, priority 1995, dated 1999).
Where a name gives a salt, the structure may show the parent alone.

Assays:
delta opioid receptor [1] = molecular target: T1, delta opioid receptor (Mus musculus, UniProt P32300); experiment: radioligand binding assay, delta receptor ([3H]-DADLE, mouse brain membranes); conditions: [3H]-DADLE 1.3 nM in presence of 40 nM DAMGO, read-out: Ki δ
T1 sequence (P32300 whole entry): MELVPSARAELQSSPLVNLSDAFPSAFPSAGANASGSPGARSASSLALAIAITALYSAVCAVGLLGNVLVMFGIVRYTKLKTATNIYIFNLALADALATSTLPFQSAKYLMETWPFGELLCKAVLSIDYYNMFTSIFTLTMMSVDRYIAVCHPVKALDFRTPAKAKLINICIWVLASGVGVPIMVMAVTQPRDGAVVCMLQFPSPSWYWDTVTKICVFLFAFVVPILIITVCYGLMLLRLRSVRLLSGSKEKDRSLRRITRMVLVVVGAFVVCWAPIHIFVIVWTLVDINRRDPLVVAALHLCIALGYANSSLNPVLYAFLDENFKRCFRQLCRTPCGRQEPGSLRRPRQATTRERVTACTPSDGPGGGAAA
Experimental: (§1) The activity of the compounds of the present invention as selective delta ligands is determined in radioligand binding assays as described below.
(§2) Mouse brain membranes were prepared as described by Kosterlitz (Br. J. Pharmacol., 1981, 73, 939.). The binding of the preferential delta ligand [^3 H]-[D-Ala^2, D-Leu^5 ]-enkephalin (DADLE) was evaluated at its KD concentration (1.3 nM) in presence of 40 nM of the unlabelled mu ligand [D-Ala^2, MePhe^4, Gly-ol^5 ]-enkephalin (DAMGO). The binding of the mu ligand [^3 H]-DAMGO (Eur. J. Pharmacol., 1989, 166, 213) and of the kappa ligand [^3 H]-U69593 (Excerpta Medica, 1990, 211) were carried out at 0.5 nM. The non-specific binding was determined in presence of naloxone (10 μM) for all tritiated ligands. Binding data were expressed as percentage of inhibition and fitted the following equation: f(x)=100·X/(IC50 +X) where X are cold drug concentration values. The IC50 obtained were used to calculate the inhibitory constants (Ki) accordingly to the Cheng and Prusoff relation (Biochenl. Pharmaco., 1973, 22, 3099).

mu opioid receptor = molecular target: T2, mu opioid receptor (Mus musculus, UniProt P42866); experiment: radioligand binding assay, mu receptor ([3H]-DAMGO, mouse brain membranes); conditions: selectivity ratio mu over delta
T2 construct: Mouse brain membranes were prepared as described by Kosterlitz; from tissue; host or cells: mouse brain membranes
T2 sequence (P42866 whole entry): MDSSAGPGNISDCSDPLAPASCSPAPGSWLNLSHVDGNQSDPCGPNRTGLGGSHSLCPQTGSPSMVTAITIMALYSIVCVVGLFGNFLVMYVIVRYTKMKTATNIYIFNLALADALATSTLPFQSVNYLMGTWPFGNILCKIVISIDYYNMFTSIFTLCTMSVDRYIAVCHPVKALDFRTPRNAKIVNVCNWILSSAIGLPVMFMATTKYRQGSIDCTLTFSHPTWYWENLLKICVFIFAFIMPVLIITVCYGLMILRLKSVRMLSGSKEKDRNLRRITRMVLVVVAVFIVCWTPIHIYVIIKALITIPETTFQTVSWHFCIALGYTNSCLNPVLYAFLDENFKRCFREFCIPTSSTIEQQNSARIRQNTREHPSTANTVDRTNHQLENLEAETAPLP
Experimental: as §1, §2

kappa opioid receptor = molecular target: T3, kappa opioid receptor (Mus musculus, UniProt P33534); experiment: radioligand binding assay, kappa receptor ([3H]-U69593, mouse brain membranes); conditions: selectivity ratio kappa over delta
T3 construct: Mouse brain membranes were prepared as described by Kosterlitz; from tissue; host or cells: mouse brain membranes
T3 sequence (P33534 whole entry): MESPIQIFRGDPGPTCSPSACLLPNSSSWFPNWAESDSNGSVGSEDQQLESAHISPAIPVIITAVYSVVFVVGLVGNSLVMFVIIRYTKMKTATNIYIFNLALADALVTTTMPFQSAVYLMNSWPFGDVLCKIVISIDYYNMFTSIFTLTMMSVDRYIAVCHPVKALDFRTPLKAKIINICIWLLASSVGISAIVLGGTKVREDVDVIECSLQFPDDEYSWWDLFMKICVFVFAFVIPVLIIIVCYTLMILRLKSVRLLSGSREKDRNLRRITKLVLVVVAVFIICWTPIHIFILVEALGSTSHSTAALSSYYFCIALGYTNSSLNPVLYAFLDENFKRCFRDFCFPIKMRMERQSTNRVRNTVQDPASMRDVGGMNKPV
Experimental: as §1, §2

delta opioid receptor [2] = molecular target: T1, delta opioid receptor; experiment: mouse vas deferens (MVD) bioassay, delta agonist/antagonist activity; parameters: Vasa deferentia were obtained from CD-1 mice; from tissue; host or cells: vas deferens of CD-1 mice
Experimental: The delta agonist/antagonist activity of the compounds of the present invention is determined in the mouse vas deferens (MVD) bioassay as described below.
Vasa deferentia were obtained from CD-1 mice and were suspended in a Mg^2+ -free Krebs buffer at 37° C. The tissues were electrically stimulated with pulse trans having the following parameters: train duration 50 ms, stimulus duration 2 ms, frequency of stimuli 50 Hz, maximal voltage 60-70 V, train frequency 0.1 Hz. Concentration response curves for each compounds were constructed cumulatively. Linear regression analysis and IC50 concentrations were evaluated according to Tallarida and Murray (Manual of Pharmacological Calculations, Springer Verlag N.Y., 1981).

Structure (SMILES)	Ki (delta opioid receptor [1]) [nM]	Ki μ/Ki δ (mu opioid receptor)	Ki κ/Ki δ (kappa opioid receptor)	shift of the dose-response curve caused by NTI (delta opioid receptor [2]; 30 nM of NTI (naltrindole)) [fold]	IC50 (delta opioid receptor [2]; electrically stimulated CD-1 mouse vas deferens, 37° C., delta agonists) [nM]
CCN(CC)C(=O)c1ccc(N(c2cccc(O)c2)C(C)CN(C)C)cc1 (racemic) [Example 9, (±)-N,N-diethyl-4-[[N-(3-dimethylaminoprop-2-yl)-N-(3-hydroxyphenyl)]amino]benzamide oxalate]	3.9	148	153		
CCN(CC)C(=O)c1ccc(N(c2cccc(O)c2)C(C)CN2CCCC2)cc1 (racemic) [Example 5, (±)-N,N-diethyl-4-[[N-(3-hydroxyphenyl)-N-(3-pyrrolidinoprop-2-yl)]amino]benzamide citrate]	3.9			10	7
